pIC50: −log10 of the molar value. Like-named read-outs stand apart in the source and are kept apart here.
What was measured:
[1] = tested on: Leishmania amazonensis-WT promastigotes; experiment: Antipromastigote assay (MTT); format: cell-based; conditions: for pIC50: 72 h of incubation, interval in brackets, read-out: Antileishmanial effect in Leishmania amazonensis IC50 Promastigote
Experimental: Leishmania amazonensis–WT promastigotes, in the logarithmic phase of growth, were transferred to 96-well culture plates (final concentration 2 × 10^6 cells/mL) and exposed to different concentrations of inhbitors during 72 h at 25 °C. The cell viability was evaluated by the 3-(4,5-dimethylthiazol-2-yl)-2,5 diphenyltetrazolium bromide (MTT) method (obtained from Sigma-Aldrich). The inhibitory concentration of 50% of parasite growth (IC50) values were calculated using GraphPad Prism 8 software […]. Three independent experiments in triplicate were performed. Amphotericin B (Cristália, São Paulo, SP, Brazil) was used as a reference drug.

[2] = tested on: L. amazonensis (RFP) amastigotes; experiment: Antiamastigote assay (RFP fluorescence, infected peritoneal macrophages); format: cell-based; conditions: 72 h of incubation; interval in brackets; read-out: Antileishmanial effect in Leishmania amazonensis IC50 Amastigote
Experimental: Peritoneal macrophages from BALB/c mice were obtained by peritoneal lavage and distributed in 24-well plates at 2 × 10^6 cells/mL in RPMI medium (Cultilab) containing 10% FBS and a 0.5% penicillin and streptomycin solution (complete RPMI). The plates were incubated for 1 h at 37 °C and 5% CO2, washed with phosphate-buffered saline (PBS), and then reincubated in complete RPMI medium overnight. The cells were washed again with PBS and infected with stationary growth phase L. amazonensis (RFP) promastigotes at a 10:1 ratio for 4 h at 33 °C. The plates were washed with PBS and the inhibitors were added at different concentrations and incubated for 72 h. After this time, each well was scraped to remove attached cells and the reading was taken with a spectrofluorimeter (FLx800, BioTek Instruments, Winooski, VT, USA) at 530 nm and 590 nm of excitation and emission, respectively. […] All assays were performed in triplicate and repeated three times. Results were calculated as the percentage of amastigote survival compared with the nontreated control group, and IC50 values were determined using GraphPad Prism 8 software.

[3] = tested on: L. amazonensis in peritoneal macrophages; experiment: Promastigote pretreatment and infection of peritoneal macrophages; format: cell-based, Leishmania amazonensis; conditions: for entry of promastigotes into macrophages: promastigotes pretreated 1 h, 0 h after 4 h interaction; for conversion of promastigotes into amastigotes: pretreated parasites (PF-429242 3.2 µM, TPCK 30 µM); for number of intracellular amastigotes (Giemsa, Supplementary Fig. 1): pretreatment with PF-429242 3.2 µM or TPCK 30 µM
Experimental: (§1) Leishmania amazonensis-RFP promastigotes were pretreated with different concentrations of inhbitors during 1 h at 25 °C. The cells were washed with PBS and used to infect peritoneal macrophages from BALB/c mice (10:1 ratio), not pretreated or pretreated with 0.5 ng/mL IFN-γ overnight, in 24-well plates. After 4 h of interaction, the plates were washed with PBS and (1) scraped to remove attached cells and read using a spectrofluorimeter (time = 0 h) or (2) incubated at 33 °C with 5% CO2 for 24 h, 48 h, and 72 h for later scraping and reading (times = 24 h, 48 h, and 72 h). Three experiments were performed, each one with three replicates.
The same experiment was repeated, but using 13 mm glass coverslips in 24-well plates. The fixation with ethanol and staining with Giemsa were performed. Subsequently, the slides were examined in an optical microscope (Olympus BX53, Shinjuku, Tokyo, Japan) and photographed (Olympus DP73, Shinjuku, Tokyo, Japan).

[4] = tested on: Leishmania amazonensis-RFP promastigotes; experiment: Viability of promastigotes after 1 h of treatment with inhibitors; format: cell-based; conditions: 1 h treatment, washed; for viability of promastigotes after 1 h of treatment, compared with the control: 0 h, 24 h, 48 h and 72 h of incubation
Experimental: Leishmania amazonensis-RFP promastigotes were treated with different concentrations of inhibitors during 1 h at 25 °C and were washed with PBS. Then, these cells had their viability determined by fluorescence analysis using a spectrofluorimeter (time = 0 h) and were also reincubated in complete RPMI medium for subsequent analysis of cell viability after 24 h, 48 h, and 72 h (times = 24 h, 48 h, and 72 h) by fluorescence analysis.

[5] = tested on: peritoneal macrophages from BALB/c mice; experiment: Cytotoxicity assay (MTT); format: cell-based; conditions: 72 h of incubation; MTT; interval in brackets
Experimental: To determinate the toxicity of the inhibitors on mammalian cells, peritoneal macrophages from BALB/c mice, obtained by peritoneal lavage, in concentration of 2 × 10^6 macrophages/mL, were adhered in 96-well culture plates overnight at 37 °C with 5% CO2. The inhibitors were then added in different concentrations and incubated for 72 h at 37 °C and 5% CO2. Cell viability was also assessed by the MTT method. Cytotoxic concentration of 50% of macrophages (CC50) values were calculated using GraPadPrism 8 software. Three independent experiments in triplicate were performed.

[6] = tested on: L. amazonensis promastigotes and amastigotes; conditions: cited from earlier work
[7] = tested on: L. amazonensis serine proteases; design: method as in PMID 25583728; conditions: cited from earlier work
L. amazonensis = conditions: mice infected with L. amazonensis; cited from earlier work
[8] = tested on: L. amazonensis serine proteases; experiment: Enzymatic assay on promastigote lysate with substrate ABZ-V-F-R-S-L-K-Q EDDnp; format: biochemical, Leishmania amazonensis; conditions: 2.5 µM inhibitor, first 10 min
Experimental: The enzymatic assay was conducted in a final volume of 200 µL per well, containing 1 µM of substrate, supernatant of lysate of 3.7 × 10^6 parasites, 2.5 µM of inhibitors (PF-429242 and TPCK) or 3 µM of E-64 in Tris-buffered pH 8. Substrate ABZ-V-F-R-S-L-K-Q EDDnp was used, which was provided by Dr. Luiz Juliano Neto from the Department of Biophysics of UNIFESP-EPM and is described in Alves, L.C. et al.. The lysate was prepared with promastigotes in stationary phase of growth, washed three times with PBS pH 7.2, and in the last wash it was resuspended in Tris-buffered pH 8 with 1% NP40. The parasites were submitted to five rapid freeze–thaw cycles in liquid nitrogen. The lysate was centrifuged at 20,000g for 10 min at […]. The supernatant was stored at −20 °C until use. The read was carried out using the spectrofluorimeter SoftMax M3 with excitation/emission of 320/420 nm.

[9] = tested on: peritoneal macrophages from BALB/c mice; design: method as in PMID 35678670, PMID 33584607, PMID 35890269; conditions: 72 h of incubation; previously published data (*); cited from earlier work
[10] = tested on: NO production by host macrophages; experiment: Determination of nitric oxide (NO) levels (Griess method); format: cell-based, BALB/c mice; conditions: supernatant of macrophages infected with promastigotes pretreated for 1 h
Experimental: Supernatant from cultures of L. amazonensis-infected macrophages, in which promastigotes were pretreated or not with PF-429242 or TPCK, was collected, and NO levels were determined by the Griess method. NO levels were determined in aliquots of 50 µL of the supernatant, to which 50 µL of the Griess reagent were added (Griess Reagent: 1% sulfanilamide in 2.5% of H3PO4 + 0.1% N-1-diidrocloride naftiletilenodiamine in 2.5% H3PO4), in a 96-well microplate. Nitrite content was quantified by comparison with a sodium nitrite standard curve. The absorbance was measured at 540 nm using a spectrophotometer (Multiskan EX, Thermo Electron Corporation, Vantaa, Finland). The assays were carried out in duplicate and three independent experiments were realized. Macrophages prestimulated with 0.5 ng/mL IFN-γ overnight and infected with L. amazonensis promastigotes without pretreatment were used as positive controls.

[11] = tested on: L. amazonensis (RFP) amastigotes; design: method as in PMID 35678670, PMID 33584607, PMID 35890269; conditions: 72 h of incubation; previously published data (*); read-out: Antileishmanial effect in Leishmania amazonensis IC50 Amastigote; cited from earlier work
[12] = tested on: L. amazonensis in peritoneal macrophages prestimulated with IFN-γ; experiment: Promastigote pretreatment and infection of macrophages prestimulated with IFN-γ; format: cell-based, Leishmania amazonensis; conditions: macrophages prestimulated with 0.5 ng/mL IFN-γ overnight; promastigotes pretreated 1 h
Experimental: as §1

[13] = tested on: Leishmania amazonensis-WT promastigotes; design: method as in PMID 35678670, PMID 33584607, PMID 35890269; conditions: 72 h of incubation; previously published data (*); read-out: Antileishmanial effect in Leishmania amazonensis IC50 Promastigote; cited from earlier work
[14] = tested on: L. amazonensis promastigotes; design: method as in PMID 17726617; conditions: 100 µM, cited from earlier work
[15] = tested on: L. donovani promastigotes; design: method as in PMID 26040107; conditions: concentration not given; cited from earlier work
[16] = tested on: L. donovani serine proteases; design: method as in PMID 26040107; conditions: concentration not given; cited from earlier work

| Compound | pIC50 [1] | pIC50 [2] | entry of promastigotes into macrophages [3] | viability of promastigotes after 1 h of treatment, compared with the control [4] | CC50 [5] [µM] | enzymatic activity of L. amazonensis serine proteases [8] | conversion of promastigotes into amastigotes [3] | number of intracellular amastigotes (Giemsa, Supplementary Fig. 1) ([3]; 48 h and 72 h after infection) | CC50 [9] [µM] | NO production versus control group [10] | pIC50 [11] | intracellular survival of L. amazonensis [12] | pIC50 [13] | cell viability of L. donovani promastigotes (reduction) [15] | inhibition of the proteolytic activity [16] [%] | other results |
| --- | --- | --- | --- | --- | --- | --- | --- | --- | --- | --- | --- | --- | --- | --- | --- | --- |
| O=S(=O)(F)Cc1ccccc1 [PMSF] | < 3.70 | < 3.70 | did not change the entry | did not change the viability | 269 |  |  |  |  |  |  |  |  |  |  | permanence and survival of amastigotes within host cells ([3]; promastigotes pretreated 1 h with 200 µM or 6.25 µM, up to 72 h): did not alter the permanence and survival |
| epoxy-α-lapachone |  |  |  |  |  |  |  |  |  |  |  |  |  |  |  | effect on promastigotes and amastigotes of L. amazonensis [6]: effective against promastigotes and amastigotes; inhibition of L. amazonensis serine proteases [7]: inhibited L. amazonensis serine proteases; lesion size (L. amazonensis): reduction of the lesion size |
| PF-429242 |  |  | did not alter the entry | not able to change cell viability |  | able to inhibit the enzymatic activity | no difficulty was observed in conversion | reduction in the number of amastigotes | 189 | no difference in NO production | 3.92 | impairs the intracellular survival | 6.08 |  |  | growth of promastigotes ([6]; different strains of L. amazonensis): inhibition of the growth of promastigotes; survival of parasites within macrophages compared with the control ([3]; promastigotes pretreated 1 h with 3.2 µM, 1.6 µM or 0.8 µM, 48 h and 72 h after infection): reduced survival |
| Cc1ccc(S(=O)(=O)N[C@@H](Cc2ccccc2)C(=O)CCl)cc1 [TPCK, N-p-tosyl-L-phenylalanine chloromethyl ketone] |  |  | did not alter the entry | not able to change cell viability |  | able to inhibit the enzymatic activity | no difficulty was observed in conversion | reduction in the number of amastigotes | 139 | no difference in NO production | 4.85 | impairs the intracellular survival | 4.84 | only did so after 15 h and 20 h | 52 | growth of promastigotes and intracellular amastigotes ([6]; L. amazonensis): growth inhibition of promastigotes and intracellular amastigotes; survival of parasites within macrophages compared with the negative control ([3]; promastigotes pretreated 1 h with 30 µM or 15 µM, 24 h and 48 h after infection): reduced survival; survival of parasites within macrophages compared with the negative control ([3]; promastigotes pretreated 1 h with 30 µM, 15 µM or 7.5 µM, 72 h after infection): reduced survival; viability of L. amazonensis promastigotes ([14]; after 4 h, 24 h, 48 h and 72 h of incubation): reducing cell viability; viability of promastigotes after 1 h of treatment ([4]; 30 µM, after 72 h of incubation): slight reduction in the viability; lesion size and parasite load (L. amazonensis): reduction in lesion size and parasite load |
| Cc1ccc(S(=O)(=O)N[C@@H](CCCCN)C(=O)CCl)cc1 [TLCK] | 4.28 | 3.85 | occurred similarly to the control | did not change the viability | 104 |  |  |  |  |  |  |  |  | only did so after 15 h and 20 h | 18 | inhibition of the parasite's viability ([1]; promastigotes, 6.25 µM): around 10%; survival of parasites within macrophages ([3]; promastigotes pretreated 1 h with 100 µM, 48 h and 72 h of infection): slightly reduced; viability of L. amazonensis promastigotes [14]: did not reduce promastigote viability |
